According to US20100160369A1, “S1P1 Agonists and Methods of Making And Using” (EXELIXIS, INC., priority 2008, published 2010):
pEC50: −log10 of the molar value.

Assays:
hS1P1R (hEdg1) = biological target: T1, hS1P1R (hEdg1) (Homo sapiens, UniProt P21453); assay: hS1P1R GTPγS Binding Assay (Assay 3a); format: biochemical
T1 construct: purchased Lonza
Method: The hS1P1R GTPγS binding assay was carried out at room temperature in 96 well non-binding surface assay plates. The reaction in each well contained 4 μg hS1P1R (hEdg1) membrane protein (Lonza), 30 μM GDP, 0.1 nM [^35S]GTPγS, 0.25% fatty acid free BSA, and serially diluted hS1P1R agonist compound in 200 μL assay buffer (25 mM Tris-HCl PH 7.9, 100 mM NaCl, 3 mM MgCl2, and 0.2 mM EGTA). After one hour of incubation, 0.9 mg of WGA (Wheat Germ Agglutinin) SPA beads in 50 μL of assay buffer was added to each well. The SPA beads were spun down after an additional one hour incubation. The radioactivity of the bound GTPγS was counted by reading the assay plate using a MicroBeta.
Assay 1 is the CNG cAMP Assay as described in Biological Example 1. Assay 2a and 2b are the Tango™ β-arrestin Recruitment Assay in HEK293 and U2OS cells, respectively, as described in Biological Example 2. Assay 3a is the hS1P1R GTPγS Binding Assay as described in Biological Example 3. Assay 3b is the GTP-Eu Binding Assay as described in Biological Example 3. EC50's were measured unless otherwise noted. […] In the table, “nt” means the Compound was not tested and “no” means the compound was tested but had no measurable activity under the assay conditions employed.

S1P1 [1] = biological target: T2, S1P1 (Homo sapiens, UniProt P21453); assay: CNG cAMP Assay (Assay 1); format: cell-based; design: host or cells: HEK293 cells expressing the CNG channel; details: read-out: Assay 1 EC50
In short: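 HEK293 cells expressing CNG channel and S1P1, membrane-potential dye loaded; compounds (top 10 μM, 10-point 3-fold, 1.8% DMSO) added with 25 μM Ro 20-1724, 500 nM NECA and 10 nM S1P for 90 min. T90/T0 fluorescence (Ex 350/Em 590 nm) normalised to NECA-alone vs DMSO; EC50 fitted.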
Target sequence in this assay (P21453 whole entry): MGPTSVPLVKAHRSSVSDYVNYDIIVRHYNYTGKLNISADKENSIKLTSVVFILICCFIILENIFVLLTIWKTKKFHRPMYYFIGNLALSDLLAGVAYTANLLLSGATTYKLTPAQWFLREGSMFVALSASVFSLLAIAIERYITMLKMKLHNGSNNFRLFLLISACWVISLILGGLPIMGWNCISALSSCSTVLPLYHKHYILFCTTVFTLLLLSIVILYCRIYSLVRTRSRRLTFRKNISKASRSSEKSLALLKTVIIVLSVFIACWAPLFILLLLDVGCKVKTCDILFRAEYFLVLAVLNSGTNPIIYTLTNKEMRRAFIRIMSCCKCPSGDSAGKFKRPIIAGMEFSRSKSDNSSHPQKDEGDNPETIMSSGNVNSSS

S1P1 [2] = biological target: T2, S1P1; assay: Tango β-arrestin Recruitment Assay in HEK293 cells (Assay 2a); format: cell-based; design: linker with TEV protease (N1a) cleavage site (C); host or cells: HEK293, transiently transfected; details: Tango β-arrestin Recruitment Assay, read-out: Assay 2a EC50
In short: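 HEK293 cells transiently expressing S1P1 (TEV-cleavable tTA fusion) with β-arrestin2–TEV; compounds up to 10 μM, 10-point 3-fold, 1% DMSO, 30 min then 16–18 h at 37 °C. Luciferase luminescence normalised to 5 μM S1P as 100% and DMSO as background; EC50 from percent-activity curves.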
Target sequence in this assay (P21453 whole entry): as above
Target sequence in this assay (P32121 whole entry partner): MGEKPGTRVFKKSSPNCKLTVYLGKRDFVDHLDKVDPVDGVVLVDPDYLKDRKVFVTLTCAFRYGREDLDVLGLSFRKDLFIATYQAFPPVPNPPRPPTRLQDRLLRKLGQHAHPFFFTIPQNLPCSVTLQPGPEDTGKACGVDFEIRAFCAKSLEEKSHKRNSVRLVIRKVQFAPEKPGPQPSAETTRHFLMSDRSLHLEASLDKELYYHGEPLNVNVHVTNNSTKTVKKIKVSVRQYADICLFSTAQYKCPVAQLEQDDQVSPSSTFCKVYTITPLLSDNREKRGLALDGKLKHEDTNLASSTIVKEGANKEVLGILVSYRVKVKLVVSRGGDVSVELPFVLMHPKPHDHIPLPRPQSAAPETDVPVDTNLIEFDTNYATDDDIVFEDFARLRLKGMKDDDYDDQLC

S1P1 [3] = biological target: T2, S1P1; assay: Tango β-arrestin Recruitment Assay in U2OS cells (Assay 2b); format: cell-based; design: linker with TEV protease (N1a) cleavage site (C); details: Tango β-arrestin Recruitment Assay, read-out: Assay 2b EC50
In short: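 U2OS cells expressing S1P1 and reporter, serum-starved 48 h, treated with compound (10-point 3-fold series, top 1 μM, 1% DMSO) overnight at 37 °C; β-lactamase substrate added 2 h at room temperature. F460/F530 ratio normalised to 1 μM S1P (100%) and DMSO; EC50 from concentration-response.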
Target sequence in this assay (P21453 whole entry): as the sequence (P21453 whole entry) above
Target sequence in this assay (P32121 whole entry partner): as the sequence (P32121 whole entry partner) above

T1 sequence (P21453 whole entry): as the sequence (P21453 whole entry) above

pEC50 (hS1P1R (hEdg1))	pEC50 (S1P1 [1])	pEC50 (S1P1 [2])	pEC50 (S1P1 [3])	Compound
6.00 to 6.30	≥ 7.00	≥ 7.00		O=C(O)CCc1c(Cl)cc(-c2noc(-c3cn4cc(C(F)(F)F)cc(Cl)c4n3)n2)cc1Cl [Entry 21]
≥ 7.00		≥ 7.00	≥ 7.00	OC[C@H](O)COc1cc(Cl)c(-c2noc(-c3cn4cc(C(F)(F)F)cc(Br)c4n3)n2)cc1Cl [Entry 33]
≥ 7.00		≥ 7.00	≥ 7.00	C[C@H](O)COc1cc(Cl)c(-c2noc(-c3cn4cc(C(F)(F)F)cc(Cl)c4n3)n2)cc1Cl [Entry 38]
≥ 7.00		≥ 7.00	≥ 7.00	OCC(O)COc1cc(Cl)c(-c2nc(-c3cn4cc(C(F)(F)F)cc(Cl)c4n3)no2)cc1Cl (stereo not drawn) [Entry 50]
6.00 to 6.30	≥ 7.00	≥ 7.00		O=C(O)C1CC1c1cc(Cl)c(-c2noc(-c3cn4cc(C(F)(F)F)cc(Br)c4n3)n2)cc1F (stereo not drawn) [Example 89, 2-(4-{5-[8-bromo-6-(trifluoromethyl)imidazo[1,2-a]pyridin-2-yl]-1,2,4-oxadiazol-3-yl}-5-chloro-2-fluorophenyl)cyclopropanecarboxylic acid]
≥ 7.00		≥ 7.00	≥ 7.00	OCCCOc1cc(Cl)c(-c2noc(-c3cn4cc(C(F)(F)F)cc(Cl)c4n3)n2)cc1Cl [Example 105, 3-[(2,5-dichloro-4-{5-[8-chloro-6-(trifluoromethyl)imidazo[1,2-a]pyridin-2-yl]-1,2,4-oxadiazol-3-yl}phenyl)oxy]propan-1-ol]
≥ 7.00		≥ 7.00	≥ 7.00	OC(CF)COc1cc(Cl)c(-c2noc(-c3cn4cc(C(F)(F)F)cc(Cl)c4n3)n2)cc1Cl (stereo not drawn) [Example 118, 1-[(2,5-dichloro-4-{5-[8-chloro-6-(trifluoromethyl)imidazo[1,2-a]pyridin-2-yl]-1,2,4-oxadiazol-3-yl}phenyl)oxy]-3-fluoropropan-2-ol]
6.30 to 7.00		≥ 7.00	≥ 7.00	CC(C)(O)COc1cc(Cl)c(-c2noc(-c3cn4cc(C(F)(F)F)cc(Cl)c4n3)n2)cc1Cl [Example 166, 1-[(2,5-dichloro-4-{5-[8-chloro-6-(trifluoromethyl)imidazo[1,2-a]pyridin-2-yl]-1,2,4-oxadiazol-3-yl}phenyl)oxy]-2-methylpropan-2-ol]
≥ 7.00		≥ 7.00	≥ 7.00	OCCCc1cc(Cl)c(-c2noc(-c3cn4cc(C(F)(F)F)cc(Cl)c4n3)n2)cc1Cl [Example 167, 3-(2,5-dichloro-4-{5-[8-chloro-6-(trifluoromethyl)imidazo[1,2-a]pyridin-2-yl]-1,2,4-oxadiazol-3-yl}phenyl)propan-1-ol]
6.00 to 6.30	≥ 7.00	≥ 7.00		OCC(O)COc1ccc(-c2noc(-c3cn4cc(C(F)(F)F)cc(Cl)c4n3)n2)c(Cl)c1 (stereo not drawn) [Example 194, 3-[(3-chloro-4-{5-[8-chloro-6-(trifluoromethyl)imidazo[1,2-a]pyridin-2-yl]-1,2,4-oxadiazol-3-yl}phenyl)oxy]propane-1,2-diol]
≥ 7.00	≥ 7.00	≥ 7.00		OCC(O)COc1cc(Cl)c(-c2noc(-c3cn4cc(C(F)(F)F)cc(Cl)c4n3)n2)cc1F (stereo not drawn) [Example 198, 3-[(5-chloro-4-{5-[8-chloro-6-(trifluoromethyl)imidazo[1,2-a]pyridin-2-yl]-1,2,4-oxadiazol-3-yl}-2-fluorophenyl)oxy]propane-1,2-diol]
6.30 to 7.00		≥ 7.00		OCC(O)COc1cc(Cl)c(-c2noc(-c3cn4cc(I)cc(Cl)c4n3)n2)cc1Cl (stereo not drawn) [Example 204, 3-({2,5-dichloro-4-[5-(8-chloro-6-iodoimidazo[1,2-a]pyridin-2-yl)-1,2,4-oxadiazol-3-yl]phenyl}oxy)propane-1,2-diol]
5.30 to 6.00		≥ 7.00		O=C(O)CCc1c(Cl)cc(-c2nnc(-c3cn4cc(C(F)(F)F)cc(Cl)c4n3)s2)cc1Cl [Example 206, 3-(2,6-dichloro-4-{5-[8-chloro-6-(trifluoromethyl)imidazo[1,2-a]pyridin-2-yl]-1,3,4-thiadiazol-2-yl}phenyl)propanoic acid]
5.30 to 6.00		≥ 7.00		O=C(O)CCc1cc(Cl)c(-c2nnc(-c3cn4cc(I)cc(Cl)c4n3)s2)cc1F [Example 207, 3-{5-chloro-4-[5-(8-chloro-6-iodoimidazo[1,2-a]pyridin-2-yl)-1,3,4-thiadiazol-2-yl]-2-fluorophenyl}propanoic acid]
≥ 7.00		≥ 7.00		OCC(O)COc1c(Cl)cc(-c2noc(-c3cn4cc(C(F)(F)F)cc(Cl)c4n3)n2)cc1Cl (stereo not drawn) [Example 209, 3-[(2,6-dichloro-4-{5-[8-chloro-6-(trifluoromethyl)imidazo[1,2-a]pyridin-2-yl]-1,2,4-oxadiazol-3-yl}phenyl)oxy]propane-1,2-diol]
≥ 7.00		≥ 7.00	≥ 7.00	OCC(O)COc1cc(Cl)c(-c2noc(-c3cn4cc(C(F)(F)F)cc(Br)c4n3)n2)cc1Cl (stereo not drawn) [Example 212, 3-[(4-{5-[8-bromo-6-(trifluoromethyl)imidazo[1,2-a]pyridin-2-yl]-1,2,4-oxadiazol-3-yl}-2,5-dichlorophenyl)oxy]propane-1,2-diol]
6.00 to 6.30		≥ 7.00		O=C(O)CCc1cc(Cl)c(-c2nc(-c3cn4cc(I)cc(Cl)c4n3)no2)cc1F [Example 240, 3-{5-chloro-4-[3-(8-chloro-6-iodoimidazo[1,2-a]pyridin-2-yl)-1,2,4-oxadiazol-5-yl]-2-fluorophenyl}propanoic acid]
	≥ 7.00	≥ 7.00	6.30 to 7.00	OCC(O)COc1cc(Cl)c(-c2nnc(-c3cn4cc(C(F)(F)F)cc(Cl)c4n3)s2)cc1F (stereo not drawn) [Example 247, 3-[(5-chloro-4-{5-[8-chloro-6-(trifluoromethyl)imidazo[1,2-a]pyridin-2-yl]-1,3,4-thiadiazol-2-yl}-2-fluorophenyl)oxy]propane-1,2-diol]
≥ 7.00		≥ 7.00	≥ 7.00	OCCOc1cc(Cl)c(-c2noc(-c3cn4cc(C(F)(F)F)cc(Br)c4n3)n2)cc1Cl [Example 277, 2-[(4-{5-[8-bromo-6-(trifluoromethyl)imidazo[1,2-a]pyridin-2-yl]-1,2,4-oxadiazol-3-yl}-2,5-dichlorophenyl)oxy]ethanol]
≥ 7.00		≥ 7.00	≥ 7.00	OCC(CO)COc1cc(Cl)c(-c2noc(-c3cn4cc(C(F)(F)F)cc(Cl)c4n3)n2)cc1Cl [Example 278, 2-{[(2,5-dichloro-4-{5-[8-chloro-6-(trifluoromethyl)imidazo[1,2-a]pyridin-2-yl]-1,2,4-oxadiazol-3-yl}phenyl)oxy]methyl}propane-1,3-diol]
5.30 to 6.00		≥ 7.00		CC(Cc1cc(Cl)c(-c2nnc(-c3cn4cc(C(F)(F)F)cc(Cl)c4n3)s2)cc1Cl)C(=O)O (stereo not drawn) [Example 285, 3-(2,5-dichloro-4-{5-[8-chloro-6-(trifluoromethyl)imidazo[1,2-a]pyridin-2-yl]-1,3,4-thiadiazol-2-yl}phenyl)-2-methylpropanoic acid]
5.30 to 6.00		≥ 7.00	≥ 7.00	O=C(O)CCc1cc(Cl)c(-c2nnc(-c3cn4cc(C(F)(F)F)cc(Br)c4n3)s2)cc1Cl [Example 286, 3-(4-{5-[8-bromo-6-(trifluoromethyl)imidazo[1,2-a]pyridin-2-yl]-1,3,4-thiadiazol-2-yl}-2,5-dichlorophenyl)propanoic acid]
6.30 to 7.00		≥ 7.00	≥ 7.00	CC(C)(O)COc1cc(Cl)c(-c2noc(-c3cn4cc(C(F)(F)F)cc(Br)c4n3)n2)cc1Cl [Example 287, 1-[(4-{5-[8-bromo-6-(trifluoromethyl)imidazo[1,2-a]pyridin-2-yl]-1,2,4-oxadiazol-3-yl}-2,5-dichlorophenyl)oxy]-2-methylpropan-2-ol]
